Biological target: T1, human M4 muscarinic acetylcholine receptor (Homo sapiens, UniProt P08173)
T1 construct: expressed in transfected cells; host or cells: CHO-K1
T1 sequence (P08173 1-479): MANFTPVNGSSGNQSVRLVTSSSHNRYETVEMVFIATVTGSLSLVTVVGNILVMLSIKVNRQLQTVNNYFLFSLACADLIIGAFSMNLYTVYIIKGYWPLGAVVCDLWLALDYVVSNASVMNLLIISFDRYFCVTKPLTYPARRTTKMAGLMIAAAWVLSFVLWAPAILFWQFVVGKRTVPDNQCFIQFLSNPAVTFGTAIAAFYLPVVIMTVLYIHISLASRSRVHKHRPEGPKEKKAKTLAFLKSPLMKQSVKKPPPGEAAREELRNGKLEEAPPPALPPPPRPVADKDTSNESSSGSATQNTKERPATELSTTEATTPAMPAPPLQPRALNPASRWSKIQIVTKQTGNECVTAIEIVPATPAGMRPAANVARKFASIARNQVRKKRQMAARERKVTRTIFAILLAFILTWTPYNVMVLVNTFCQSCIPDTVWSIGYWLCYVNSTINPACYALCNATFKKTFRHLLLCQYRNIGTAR
Experiment: human FLIPR-based M4 PAM assay (CHO-K1 cells with human M4 receptor and Gaqi5, calcium dye fluorescence)
Type: cell-based
Conditions: inflection point (IP) of dose response curve, acetylcholine added at 20% of maximum response, read-out: M4 FLIPPR Hu IP
Summary of the method: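 CHO-K1 cells stably expressing human M4 with chimeric Gaqi5, calcium-dye loaded ~1 h at 37° C; compound added at increasing concentrations 4 min before acetylcholine at an EC20 concentration (sometimes a further EC70 addition).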

SMILES	EC50 [nM]
COc1cc2ccc(-c3nc(C)ccc3-c3cnn(CC4CCC5(CC5)C4)c3)cc2nn1 (stereo not drawn) [Example 145, 3-methoxy-7-(6-methyl-3-(1-(spiro[2.4]heptan-5-ylmethyl)-1H-pyrazol-4-yl)pyridin-2-yl)cinnoline]	92
c1cnc(-c2ccc3cccnc3c2)c(-c2cnn(CC3CCCC3)c2)c1 [Example 147, 7-(3-(1-(cyclopentylmethyl)-1H-pyrazol-4-yl)pyridin-2-yl)quinoline]	50
Cc1ccc(-c2cnn(CC3CCCC3)c2)c(-c2ccc3c(c2)nc(Cl)n3C)n1 [Example 152, 2-chloro-5-(3-(1-(cyclopentylmethyl)-1H-pyrazol-4-yl)-6-methylpyridin-2-yl)-1-methyl-1H-benzo[d]imidazole]	80
N#Cc1ccc(-c2cnn(CC3(F)CCCC3)c2)c(-c2ccn3c(Br)cnc3c2)n1 [Example 153, 6-(3-bromoimidazo[1,2-a]pyridin-7-yl)-5-(1-((1-fluorocyclopentyl)methyl)-1H-pyrazol-4-yl)picolinonitrile]	23
Cn1c(Cl)nc2cc(-c3nc(C#N)ccc3-c3cnn(CC4(C)CCCC4)c3)ccc21 [Example 154, 6-(2-chloro-1-methyl-1H-benzo[d]imidazol-5-yl)-5-(1-((1-methylcyclopentyl)methyl)-1H-pyrazol-4-yl)picolinonitrile]	44
COCc1nc2cc(-c3nc(C#N)ccc3-c3cnn(CC4(F)CCCC4)c3)ccn2n1 [Example 155, 5-(1-((1-fluorocyclopentyl)methyl)-1H-pyrazol-4-yl)-6-(2-(methoxymethyl)-[1,2,4]triazolo[1,5-a]pyridin-7-yl)picolinonitrile]	55
COc1cc2ccc(-c3nc(C)c(C)cc3-c3cnn(CC4(C)CCCC4)c3)cc2nn1 [Example 157, 7-(5,6-dimethyl-3-(1-((1-methylcyclopentyl)methyl)-1H-pyrazol-4-yl)pyridin-2-yl)-3-methoxycinnoline]	7
Cc1ccc(-c2cnn(CC3CCCC3)c2)c(-c2ccc3cc(N)nnc3c2)n1 [Example 158, 7-(3-(1-(cyclopentylmethyl)-1H-pyrazol-4-yl)-6-methylpyridin-2-yl)cinnolin-3-amine]	19
Cc1ccc(-c2cnn(CC3CCCC3)c2)c(-c2ccc3cc(I)nnc3c2)n1 [Example 159, 7-(3-(1-(cyclopentylmethyl)-1H-pyrazol-4-yl)-6-methylpyridin-2-yl)-3-iodocinnoline]	14
N#Cc1ccc(-c2nc(C#N)ccc2-c2cnn(CC3CCCC3)c2)cc1 [Example 160, 6-(4-cyanophenyl)-5-(1-(cyclopentylmethyl)-1H-pyrazol-4-yl)picolinonitrile]	48
CC1(Cn2cc(-c3ccc(C#N)nc3-c3ccc4cc(N5CCC5)cnc4c3)cn2)CCCC1 [Example 161, 6-(3-(azetidin-1-yl)Quinolin-7-yl)-5-(1-((1-methylcyclopentyl)methyl)-1H-pyrazol-4-yl)picolinonitrile]	45
Cc1cn2ccc(-c3nc(C#N)c(Cl)cc3-c3cnn(CC4(C)CCCC4)c3)cc2n1 [Example 162, 3-chloro-5-(1-((1-methylcyclopentyl)methyl)-1H-pyrazol-4-yl)-6-(2-methylimidazo[1,2-a]pyridin-7-yl)picolinonitrile]	40
CC1(Cn2cc(-c3ccc(C#N)nc3-c3ccc4cc(CO)nnc4c3)cn2)CCCC1 [Example 163, 6-(3-(hydroxymethyl)cinnolin-7-yl)-5-(1-((1-methylcyclopentyl)methyl)-1H-pyrazol-4-yl)picolinonitrile]	46
CC1(Cn2cc(-c3ccc(C#N)nc3-c3ccc4cc(CF)nnc4c3)cn2)CCCC1 [Example 164, 6-(3-(fluoromethyl)cinnolin-7-yl)-5-(1-((1-methylcyclopentyl)methyl)-1H-pyrazol-4-yl)picolinonitrile]	85
Clc1ccc(-c2cnn(CC3CCCC3)c2)c(-c2ccc3cccnc3c2)n1 [Example 165, 7-(6-chloro-3-(1-(cyclopentylmethyl)-1H-pyrazol-4-yl)pyridin-2-yl)quinoline]	7

— patent US11149036B2, “3-(1H-pyrazol-4-yl)pyridine allosteric modulators of the M4 muscarinic acetylcholine receptor” (Merck Sharp & Dohme Corp., priority 2017, dated 2021)
